{
  "source": "patent US11266662B2",
  "about": "“Ganaxolone for use in prophylaxis and treatment of postpartum depression” (Marinus Pharmaceuticals, Inc., priority 2018, dated 2022)",
  "key": {"[1]": {"assay": "Example 3 Phase 2 study of oral ganaxolone in women with PPD: expected plasma concentrations", "assay_type": "in vivo, human", "method": "Approximately 172 women aged 18 to 48 years with PPD are screened, and approximately 88 subjects are enrolled into a Phase 2 clinical study. The enrolled subjects are assigned to five groups.\nIn the first group, approximately 8 subjects are titrated to a total daily oral dose of 900 mg ganaxolone per day (administered in three divided doses per day) over 10 days, followed by a taper over 4 days. For this group ganaxolone doses are titrated from 225 mg on Day 1 to a total daily oral dose of 900 mg starting on Day 7. The ganaxolone mean trough plasma concentrations during the Days 8, 9, and 10 are predicted to be about 40 ng/ml, based on PK modelling. Bedtime doses are selected to be higher than the daytime doses, and are expected to yield plasma mean peak concentrations up to 180 ng/ml during the night on Days 8, 9 and 10.\nIn the third group, approximately 20 subjects receive ganaxolone administered orally at a dose of 675 mg QHS for 28 days, followed by a taper over 4 days. The trough ganaxolone levels are expected to be below 40 ng/ml.\nIn the fourth group, approximately 20 subjects receive orally, on the first 2 days, ganaxolone capsules 675 mg at dinner time and 675 mg at bedtime (for a total of 1,350 mg per day on the first 2 days), followed by 26 days of ganaxolone capsules 1,125 mg at dinner time (high fat diet), and a taper over 4 days. […]"}, "[2]": {"assay": "Phase 1 study of IV ganaxolone in healthy volunteers (safety, pharmacokinetics, sedation)", "assay_type": "in vivo, human", "method": "The safety, pharmacokinetics and pharmacodynamics of IV ganaxolone were investigated in healthy 36 volunteers, in which ganaxolone was administered as a bolus dosing (Stage 1) or as a bolus dose followed by a continuous infusion (Stage 2). Ten of the 36 subjects enrolled were women. Stage 1 enrolled and dosed subjects in 4 cohorts (A-D): 6 subjects in Cohort A (10 mg ganaxolone IV bolus in 3 subjects and 30 mg ganaxolone bolus in 3 subjects over 5-minutes), 8 subjects in Cohort B (20 mg ganaxolone bolus over 2-minutes), 8 subjects in Cohort C (30 mg ganaxolone bolus over 1-hour) and 8 subjects in Cohort D (10 mg ganaxolone bolus over 1-hour). Cohorts B, C and D included 2 placebo subjects in each cohort. Stage 2 of the study dosed a total of 6 subjects with a 6 mg bolus followed by a 4-hour infusion at 20 mg/h. Ten of the 36 subjects enrolled in the study were women.\nA Phase 1 study in healthy volunteers investigating the safety of IV ganaxolone, infusion of 30 mg/hr for 1 hour, 20 mg over 2 minutes and 20 mg/hr for 4 hours led to peak concentrations of 258, 441 and 215 ng/mL, respectively, without any safety concerns. Sedation was assessed using the Modified Observers Assessment of Alertness/Sedation (MOAAS) scale. On this scale, score 5 indicates no sedation (responds readily to name spoken in normal tone) while score 1 indicates deep sedation (responds only after painful trapezius squeeze). […] The sedation scores reversed quickly after the infusion was stopped. The highest bolus dose tested was 30 mg, which was infused over 5-minutes. This dose led to peak concentration levels (Cmax) of >1,000 ng/mL with no safety concerns (except sedation)."}, "[3]": {"test_system": "subjects", "assay": "All completed placebo-controlled clinical studies of ganaxolone: adverse events", "assay_type": "in vivo, human", "method": "As of Oct. 10, 2017, 1557 unique subjects have received ganaxolone ranging in duration from 1 day to more than 2 years using doses from 50 to 2000 mg/day in completed studies. Of these subjects, 1527 subjects received oral ganaxolone and 30 subjects received intravenous (IV ganaxolone).\nIn 20 completed Phase 1 studies, 319 healthy subjects received ganaxolone oral doses of 50 to 2,000 mg/day for periods of up to 2 weeks or IV bolus doses ranging from 10 to 30 mg over durations of 2 minutes to 1 hour or a bolus dose of 6 mg over 5 minutes followed with a continuous infusion of 20 mg per hour for 4 hours.\nIn the 20 completed Phase 2/3 clinical studies, 1238 unique subjects have received oral ganaxolone in studies of adult subjects with epilepsy, pediatric subjects with seizure disorders, pediatric subjects with FXS, adult subjects with PTSD, and adult subjects with migraine."}, "[4]": {"test_system": "BTBR mouse model of autism", "details": "Kazdoba et al, 2016; cited from earlier work"}, "[5]": {"assay": "Mutagenicity"}, "[6]": {"assay": "Solubility of ganaxolone", "details": "for solubility: organic solvent or mixture"}, "[7]": {"test_system": "rabbits", "assay": "Local tolerance study in rabbits", "details": "rabbit, in vivo"}, "[8]": {"target": "human ether-a-go-go related gene (hERG) receptor (Homo sapiens, UniProt Q12809)", "sequence (Q12809 whole entry)": "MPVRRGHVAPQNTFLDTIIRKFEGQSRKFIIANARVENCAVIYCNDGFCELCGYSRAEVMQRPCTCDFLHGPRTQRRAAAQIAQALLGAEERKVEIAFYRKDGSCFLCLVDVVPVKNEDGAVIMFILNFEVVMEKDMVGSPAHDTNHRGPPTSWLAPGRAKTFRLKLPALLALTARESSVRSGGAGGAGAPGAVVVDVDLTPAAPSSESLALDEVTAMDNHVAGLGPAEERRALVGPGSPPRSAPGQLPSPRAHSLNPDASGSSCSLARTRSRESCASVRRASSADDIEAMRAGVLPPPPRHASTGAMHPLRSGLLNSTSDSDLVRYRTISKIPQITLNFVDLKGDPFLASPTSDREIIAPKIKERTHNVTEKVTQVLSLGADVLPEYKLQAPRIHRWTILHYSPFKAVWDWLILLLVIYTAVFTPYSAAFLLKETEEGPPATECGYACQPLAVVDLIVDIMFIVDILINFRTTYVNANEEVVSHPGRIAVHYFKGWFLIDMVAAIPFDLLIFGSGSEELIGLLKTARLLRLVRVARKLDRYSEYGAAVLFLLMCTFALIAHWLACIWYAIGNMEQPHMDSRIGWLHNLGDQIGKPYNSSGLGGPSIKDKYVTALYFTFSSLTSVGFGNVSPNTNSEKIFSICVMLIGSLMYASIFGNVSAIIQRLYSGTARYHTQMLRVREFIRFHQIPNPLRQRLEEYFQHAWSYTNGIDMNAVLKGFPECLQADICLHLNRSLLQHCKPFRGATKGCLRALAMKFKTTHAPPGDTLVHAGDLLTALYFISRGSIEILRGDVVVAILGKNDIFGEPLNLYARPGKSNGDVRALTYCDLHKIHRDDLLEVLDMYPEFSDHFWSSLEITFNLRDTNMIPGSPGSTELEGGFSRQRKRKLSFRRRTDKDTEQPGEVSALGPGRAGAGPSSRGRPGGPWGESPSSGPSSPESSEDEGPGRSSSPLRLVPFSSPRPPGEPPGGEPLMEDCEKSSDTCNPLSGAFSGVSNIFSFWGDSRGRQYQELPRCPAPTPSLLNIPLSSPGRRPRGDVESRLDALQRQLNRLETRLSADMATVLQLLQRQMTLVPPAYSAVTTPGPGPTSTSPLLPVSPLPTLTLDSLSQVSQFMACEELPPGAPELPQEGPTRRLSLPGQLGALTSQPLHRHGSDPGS", "assay": "hERG interaction (safety pharmacology)", "details": "measured concentration of 70 nM (n=2)"}, "[9]": {"test_system": "rats or mice", "assay": "Reproductive and developmental toxicity"}, "[10]": {"test_system": "cytochrome P450 (CYP) isoenzymes 1A1/2 and 2B1/2", "assay": "Induction of cytochrome P450 isoenzymes in rats", "details": "female rats but not males"}, "[11]": {"assay": "IV bolus plus continuous IV infusion toxicity in dog, 28 days", "details": "in vivo"}, "[12]": {"test_system": "CYP3A4/5", "assay": "Ganaxolone levels in subjects taking strong CYP inducers (carbamazepine and phenytoin)", "details": "with strong CYP inducers (carbamazepine and phenytoin)"}},
  "data": [
    {"smiles": "CC(=O)[C@H]1CC[C@H]2[C@@H]3CC[C@H]4C[C@](C)(O)CC[C@]4(C)[C@H]3CC[C@]12C", "note": "[ganaxolone, 3α-hydroxy-3β-methyl-5α-pregnan-20-one]", "values": [
      {"measurement": "Expected plasma mean peak concentrations during the night", "setting": "[1]; first group, Days 8, 9 and 10", "result": "up to 180 ng/ml"},
      {"measurement": "Expected trough ganaxolone levels", "setting": "[1]; third group: 675 mg QHS orally for 28 days", "result": "below 40 ng/ml"},
      {"measurement": "Peak concentration", "setting": "[2]; 20 mg over 2 minutes", "result": 441, "unit": "ng/mL"},
      {"measurement": "Peak concentration", "setting": "[2]; 20 mg/hr for 4 hours", "result": 215, "unit": "ng/mL"},
      {"measurement": "Treatment emergent AEs, seriousness and intensity", "setting": "[2]; Stages 1 and 2", "result": "None of the treatment emergent AEs were serious, and all were of mild intensity"},
      {"measurement": "Cmax", "setting": "[2]; human, in vivo, intravenous, bolus infusion of 30 mg over 5-minutes, read-out: Peak concentration levels (Cmax)", "result": "> 1", "unit": "µg/mL"},
      {"measurement": "Peak concentration", "setting": "[2]; infusion of 30 mg/hr for 1 hour", "result": 258, "unit": "ng/mL"},
      {"measurement": "Modified Observers Assessment of Alertness/Sedation (MOAAS) score", "setting": "[2]; score 5 = no sedation, 1 = deep sedation", "result": "vast majority of the scores were 5"},
      {"measurement": "Incidence of syncope", "setting": "[3]; 2/993 subjects", "result": 0.2, "unit": "%"},
      {"measurement": "Discontinuations due to rash", "setting": "[3]; 6/993", "result": 0.6, "unit": "%"},
      {"measurement": "Subjects with at least 1 treatment emergent adverse event (TEAE)", "setting": "[3]; 613/993 subjects", "result": 61.7, "unit": "%"},
      {"measurement": "Subjects with elevated LFTs (>3×ULN AST and/or ALT)", "setting": "[3]; Phase 1, 2, and 3 placebo-controlled studies", "result": 0.32, "unit": "%"},
      {"measurement": "Events of loss of consciousness", "setting": "[3]; all placebo-controlled studies", "result": "no events of loss of consciousness related to ganaxolone"},
      {"measurement": "TEAE dizziness", "setting": "[3]; human, in vivo", "result": 13.0, "unit": "%"},
      {"measurement": "TEAE fatigue", "setting": "[3]; human, in vivo", "result": 9.7, "unit": "%"},
      {"measurement": "TEAE headache", "setting": "[3]; human, in vivo", "result": 5.5, "unit": "%"},
      {"measurement": "TEAE somnolence", "setting": "[3]; human, in vivo", "result": 22.0, "unit": "%"},
      {"measurement": "Sociability", "setting": "[4]", "result": "improved sociability"},
      {"measurement": "Mutagenicity", "setting": "[5]", "result": "No potential for mutagenicity was detected"},
      {"measurement": "solubility", "setting": "[6]; 95% alcohol", "result": 13000, "unit": "µg/mL"},
      {"measurement": "solubility", "setting": "[6]; polyethylene glycol", "result": 3100, "unit": "µg/mL"},
      {"measurement": "solubility", "setting": "[6]; propylene glycol", "result": 3500, "unit": "µg/mL"},
      {"measurement": "Concentration dissolved", "setting": "[6]; using water soluble beta cyclodextrins", "result": "> 1000", "unit": "µg/mL"},
      {"measurement": "Solubility in water", "setting": "[6]; water", "result": "insoluble"},
      {"measurement": "Local tolerance", "setting": "[7]", "result": "no findings"},
      {"measurement": "Interaction with hERG receptor", "setting": "[8]", "result": "did not interact"},
      {"measurement": "Fertility and early embryonic development", "setting": "[9]; rats", "result": "no effects on fertility and early embryonic development"},
      {"measurement": "Teratogenicity", "setting": "[9]; rats or mice", "result": "not teratogenic"},
      {"measurement": "Induction of CYP isoenzymes 1A1/2 and 2B1/2", "setting": "[10]", "result": "induces"},
      {"measurement": "NOAEL at 28 days", "setting": "[11]", "result": 7.2, "unit": "mg/kg/day"},
      {"measurement": "Lowering in overall ganaxolone levels and exposure", "setting": "[12]", "result": "~45", "unit": "%"}
    ]}
  ]
}
